Experimental data published in patent publication US8735584B2 (Merck Patent GmbH, priority 2008, dated 2014).

These compounds were tested against T1, GST-Aurora A (Homo sapiens, UniProt O14965) (assay: Aurora A IC50, Caliper LC3000 mobility shift assay). Details: LC3000 method; 15 uM ATP (the KM value); read-out: Aurora Kinase A Activity (IC50).
T1 construct: N-terminal GST fusion with full length Aurora A (1-403 amino acids); purchased Carna Biosciences 05-101
T1 sequence (O14965 1-403): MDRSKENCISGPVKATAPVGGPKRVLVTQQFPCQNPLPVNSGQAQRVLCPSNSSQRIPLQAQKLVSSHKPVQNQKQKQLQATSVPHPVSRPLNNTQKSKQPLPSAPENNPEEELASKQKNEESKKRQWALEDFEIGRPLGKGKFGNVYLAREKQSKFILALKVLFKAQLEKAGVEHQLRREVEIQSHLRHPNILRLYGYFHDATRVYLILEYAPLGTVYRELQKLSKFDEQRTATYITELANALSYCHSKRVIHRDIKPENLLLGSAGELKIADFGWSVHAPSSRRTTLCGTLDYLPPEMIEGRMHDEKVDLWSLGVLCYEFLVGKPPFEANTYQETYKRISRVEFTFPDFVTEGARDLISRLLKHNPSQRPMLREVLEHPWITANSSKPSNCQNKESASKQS
Assay type: biochemical
Description: The Aurora assays described here are performed on two Caliper Life Sciences systems: the LC3000 and the Desktop Profiler. These provide data on enzyme activity via measurement of the relative amounts of phosphorylated or unphosphorylated fluorescently labelled substrate peptide at the end of an enzymatic reaction. These different states of peptide are resolved by applying a potential difference across the sample. The presence of the charged phosphate group on the product (as opposed to the substrate) causes a different peptide mobility between the two peptides. This is visualized by excitation of the fluorescent label on the substrate and product peptides and represented as peaks within the analysis software.
In order to measure inhibitor activity of Aurora A inhibitors in the Caliper Life Sciences LC3000, a TTP Mosquito liquid handling instrument is used to place 0.25 ul of the appropriate concentration of inhibitor in 100% DMSO (for a dose response curve calculation) into each well of a 384-well plate. To this reaction components are added to a final volume of 25 ul: • 0.067 ng/ul GST-Aurora A (Carna Biosciences 05-101. N-terminal GST fusion with full length Aurora A (1-403 amino acids), accession number NP 940835.1). • 15 uM ATP (Fluke, 02055) • 1 mM DTT (Sigma, D0632) • 1 mM MgCl2 (Sigma, M1028) • 1 uM substrate peptide (sequence FITC-LRRASLG-(CONH2), synthesized by Tufts Peptide Synthesis service. • 100 mM HEPES pH 7.5 (Calbiochem, 391338) • 0.015% Brij-35 (Sigma, B4184)
The reaction is incubated for 90 min at 25 C, and then stopped by the addition of 70 ul of Stop buffer (100 mM HEPES pH 7.5, 0.015% Brij-35, 10 mM EDTA (Sigma, E7889)).
The plate is read on a Caliper LC3000 in an Off-Chip mobility shift assay format, using the following parameters for a 12-sipper chip: screening pressure—1.8 psi, upstream voltage—2700, downstream voltage—1000. These conditions cause unphosphorylated substrate and phosphorylated product peptide to resolve as separate peaks allowing direct measurement of percentage of conversion of substrate to product. The percent conversion can be plotted against concentration of inhibitor to produce a sigmoidal dose response curve, from which an 1050 can be calculated using XLFit for Microsoft Excel.
In the desired wells of a 384-well plate, Aurora A (0.067 ng/ul) was incubated with 15 uM ATP (the KM value), 1 mM DTT, 1 mM MgCl2, and 1 uM peptide substrate (sequence FITC-LRRASLG-(CONH2), FITC=fluorescein isothiocyanate) in 100 mM HEPES pH 7.5 and 0.015% Brij-35 buffer. The reaction was incubated for 90 min at 25 C, and then stopped by the addition of 45 ul of Stop buffer (100 mM HEPES ph 7.5, 0.015% Brij-35, 10 mM EDTA).
The plate was read in a Caliper LC 3000 in an Off-Chip mobility shift assay format, using the following parameters: screening pressure—1.8 psi, upstream voltage—2700, downstream voltage—1000. These conditions cause unphosphorylated substrate peptide to resolve as a peak before that of the phosphorylated peptide product.
In the following table “+” means >100 nM, “++” means 11-100 nM, and “+++” means <11 nM.

IC50, < 11 nM:
Cc1ccc(C(=O)Nc2ccc(Nc3ccnc4[nH]c(=O)c5ccccc5c34)cc2)cc1 [Compound 394, 4-Methyl-N-[4-(6-oxo-5,6-dihydro-benzo[c][1,8]naphthyridin-1-ylamino)-phenyl]-benzamide]
O=C(Nc1ccc(Nc2ccnc3[nH]c(=O)c4c(C(=O)NCCO)cccc4c23)cc1)c1ccc(F)cc1C(F)(F)F [Compound 444, 1-[4-(4-Fluoro-2-trifluoromethyl-benzoylamino)-phenylamino)-6-oxo-5,6-dihydro-benzo[c][1,8]naphthyridin-7-carboxylic acid 2-hydroxy ethyl amide]
O=C(Nc1ccc(Nc2ccnc3[nH]c(=O)c4c(C(=O)O)cccc4c23)cc1)c1ccc(F)cc1C(F)(F)F [Compound 439, 1-[4-(4-Fluoro-2-trifluoromethyl-benzoylamino)-phenylamino)-6-oxo-5,6-dihydro-benzo[c][1,8]naphthyridin-7-carboxylic acid]
O=C(Nc1ccc(Nc2ccnc3[nH]c(=O)c4cc(Cl)ccc4c23)cc1)c1ccc(F)cc1C(F)(F)F [Compound 415, 4-Fluoro-N-[4-(8-chloro-6-oxo-5,6-dihydro-benzo[c][1,8]naphthyridin-1-ylamino)-phenyl]-2-trifluoromethyl-benzamide]
O=C(NCC(O)CO)c1ccc2c(c1)c(=O)[nH]c1nccc(Nc3ccc(NC(=O)c4ccccc4)cc3)c12 (stereo not shown) [Compound 272, 1-(4-Benzamidophenylamino)-N-(2,3-dihydroxypropyl)-6-oxo-5,6-dihydrobenzo[c][1,8]naphthyridine-8-carboxamide]
COc1cccc(F)c1C(=O)Nc1ccc(Nc2ccnc3[nH]c(=O)c4ccccc4c23)cc1 [Compound 504, 2-Fluoro-6-methoxy-N-(4-(6-oxo-5,6-dihydrobenzo[c][1,8]naphthyridin-1-ylamino)phenyl)benzamide]
O=C(Nc1ccc(Nc2ccnc3[nH]c(=O)c4ccc(F)cc4c23)cc1)c1ccccc1 [Compound 412, N-[4-(9-Fluoro-6-oxo-5,6-dihydro-benzo[c][1,8]naphthyridin-1-ylamino)-phenyl]-benzamide]
O=C(Nc1ccc(Nc2ccnc3[nH]c(=O)c4ccccc4c23)cc1)c1c(F)cccc1F [Compound 388, 2,6-Difluoro-N-[4-(6-oxo-5,6-dihydro-benzo[c][1,8]naphthyridin-1-ylamino)-phenyl]-benzamide]
O=C(Nc1ccc(Nc2ccnc3[nH]c(=O)c4ccccc4c23)cc1)c1cccc(Cl)c1 [Compound 393, 3-Chloro-N-[4-(6-oxo-5,6-dihydro-benzo[c][1,8]naphthyridin-1-ylamino)-phenyl]-benzamide]

IC50, 11 to 100 nM:
CN(C)CCNC(=O)c1ccc2c(c1)c(=O)[nH]c1nccc(Nc3ccc(NC(=O)c4ccccc4)cc3)c12 [Compound 270, 1-(4-Benzamidophenylamino)-N-(2-(dimethylamino)ethyl)-6-oxo-5,6-dihydrobenzo[c][1,8]naphthyridine-8-carboxamide]
O=C(Nc1ccc(Nc2ccnc3[nH]c(=O)c4c(C(=O)O)cccc4c23)cc1)c1ccccc1 [Compound 434, 1-[4-Benzoylamino-phenylamino)-6-oxo-5,6-dihydro-benzo[c][1,8]naphthyridin-7-carboxylic acid]
CN1CCN(CCNC(=O)c2ccc3c(=O)[nH]c4nccc(Nc5ccc(NC(=O)c6ccccc6)cc5)c4c3c2)CC1 [Compound 286, 1-(4-benzamidophenylamino)-N-(2-(4-methylpiperazin-1-yl)ethyl)-6-oxo-5,6-dihydrobenzo[c][1,8]naphthyridine-9-carboxamide]
O=C(Nc1ccc(Nc2ccnc3[nH]c(=O)c4c(O)cccc4c23)cc1)c1ccccc1 [Compound 446, N-[4-(7-Hydroxy-6-oxo-5,6-dihydro-benzo[c][1,8]naphthyridin-1-ylamino)-phenyl]-benzamide]
O=C(Nc1ccc(Nc2ccnc3[nH]c(=O)c4ccccc4c23)cc1)C1(c2ccccc2)CCCC1 [Compound 494, N-(4-(6-Oxo-5,6-dihydrobenzo[c][1,8]naphthyridin-1-ylamino)phenyl)-1-phenylcyclopentanecarboxamide]
O=C(Nc1ccc(Nc2ccnc3[nH]c(=O)c4ccccc4c23)cc1F)c1ccccc1 [Compound 320, N-(2-Fluoro-4-(6-oxo-5,6-dihydrobenzo[c][1,8]naphthyridin-1-ylamino)phenyl) benzamide]

IC50, > 100 nM:
O=c1[nH]c2nccc(Nc3ccc(NS(=O)(=O)c4ccccc4)cc3)c2c2ccccc12 [Compound 341, N-(4-(6-Oxo-5,6-dihydrobenzo[c][1,8]naphthyridin-1-ylamino)phenyl)benzenesulfonamide]
O=C(Nc1ccccc1)c1ccc(Nc2ccnc3[nH]c(=O)c4ccccc4c23)cc1 [Compound 317, 4-(6-Oxo-5,6-dihydrobenzo[c][1,8]naphthyridin-1-ylamino)-N-phenylbenzamide]
CC(NC(=O)CN1CCC(Nc2ccnc3[nH]c(=O)c4ccccc4c23)CC1)c1ccccc1 (stereo not shown) [Compound 288, 2-(4-(6-Oxo-5,6-dihydrobenzo[c][1,8]naphthyridin-1-ylamino)piperidin-1-yl)-N-(1-phenylethyl)acetamide]
O=c1[nH]c2ncccc2c2cc(NCc3ccccc3[N+](=O)[O-])ccc12 [Compound 466, 9-(2-Nitrobenzylamino)benzo[c][1,8]naphthyridin-6(5H)-one]
COc1cccc(C#Cc2ccnc3[nH]c(=O)c4ccccc4c23)c1 [Example 160, 1-(3-Methoxy-phenylethynyl)-5H-benzo[c][1,8]naphthyridin-6-one]
O=C(c1cccn(-c2ccc(F)cc2)c1=O)N1CCOc2cc(Oc3ccnc4[nH]c(=O)c5ccccc5c34)ccc21 [Example 228, 1-{4-[1-(4-Fluoro-phenyl)-2-oxo-1,2-dihydro-pyridine-3-carbonyl]-3,4-dihydro-2H-benzo[1,4]oxazin-7-yloxy}-5H-benzo[c][1,8]naphthyridin-6-one]
O=c1[nH]c2ncccc2c2cc(NCc3cccc([N+](=O)[O-])c3)ccc12 [Compound 465, 9-(3-Nitrobenzylamino)benzo[c][1,8]naphthyridin-6(5H)-one]
O=C(Nc1ccccc1Nc1ccnc2[nH]c(=O)c3ccccc3c12)c1ccccc1 [Compound 392, N-[2-(6-Oxo-5,6-dihydro-benzo[c][1,8]naphthyridin-1-ylamino)-phenyl]-benzamide]
O=C(Nc1ccc(Oc2ccnc3[nH]c(=O)c4ccccc4c23)cc1F)c1cccn(-c2ccc(F)cc2)c1=O [Example 187, 1-(4-Fluoro-phenyl)-2-oxo-1,2-dihydro-pyridine-3-carboxylic acid [2-fluoro-4-(6-oxo-5,6-dihydro-benzo[c][1,8]naphthyridin-1-yloxy)-phenyl]-amide]
Cc1cc(Nc2ccnc3[nH]c(=O)c4ccccc4c23)ccc1NC(=O)c1ccccc1 [Compound 322, N-(2-Methyl-4-(6-oxo-5,6-dihydrobenzo[c][1,8]naphthyridin-1-ylamino)phenyl)benzamide]
